“Also recorded” adds a separate entry of the source. Read-outs that look alike come from different tables or passages of the source.
Columns and labels:
[1] = tested on: hematopoietic progenitor cells (HPC: CD45+CD34+CD38−CD45RA−); assay: Ex vivo expansion of hematopoietic progenitor cells from non-enriched UCB mononuclear cells; conditions: for relative effectiveness in inducing ex vivo expansion of HPC/HSPC (in words): among all the compounds screened; for enhancement of HPC expansion compared to cytokine control: 11 days (FIG. 9A)
[2] = tested on: total nucleated cells (TNC); conditions: for expansion of TNC reduced, compared to 5.0 μM: 11 days (FIG. 9A)
Excerpt: UCB was obtained through Singapore Cord Blood Bank (SCBB), from donated units failing to meet the criteria for clinical banking. Prior consent was obtained from the donating mothers and the Research Advisory Ethics Committee of the SCBB, along with the Institutional Review Boards of National University of Singapore (NUS), and Singapore General Hospital (SGH) approved the usage of the samples. Mononuclear cells (MNC) were isolated from the fresh UCB by density gradient centrifugation using Ficoll-Histopaque™ Premium (GE Healthcare, UK). Counted UCB-MNC was cryopreserved in 90% v/v autologous plasma with 10% v/v dimethyl-sulfoxide (DMSO) (Sigma Aldrich, USA) for subsequent usage. UCB-MNC was thawed using human serum albumin (25% v/v) (Health Sciences Authority, Singapore) and Dextran 40 (75% v/v) (Hospira, USA). […] For certain experiments, cell cultures were initiated with purified populations such as early (CD45+CD34+CD38−) or late (CD45+CD34+CD38+) progenitor cells at optimal plating concentration of 5.0×10^4 cells/ml or 2.0×10^6 cells/ml, respectively. Such pure populations were obtained by labeling the frozen-thawed, non-enriched UCB-MNC using fluorescence conjugated antibodies followed by fluorescence activated cell sorting (FACS). The substituted azole-based small molecules dissolved in DMSO were added to the cultures at an empirically determined optimal concentration of 5.0 μM. UCB-MNC cultures devoid of small molecules but supplemented with cytokines served as control, while cultures supplemented with cytokines and DMSO served as vehicle control.
Cell cultures for in vitro experiments were done in 6- or 24-well plates (BD Falcon, USA), while culturing for in vivo transplantation studies was carried out in T-175 flasks (Corning, USA). Cell cultures were maintained in a humidified, 5% carbon dioxide incubator at 37° C. for the required duration. For UCB expansion evaluation and animal experimentation, an established 10-11-day expansion protocol was used which included cytokine and small molecule replenishment on day 7. At completion of incubation, cells were aspirated from the culture-ware with subsequent rinsing by Dulbecco's phosphate buffered saline (DPBS) (Hyclone, USA). The extracted cells were counted using an automated differential hematology cell counter (COULTER® AcT™ diff Hematology Analyzer, Beckman Coulter Inc, USA) and re-suspended in DPBS for subsequent in vitro analysis or transplantation in mice.

[3] = tested on: CD45+ leukocytes of UCB-MNC; conditions: 5.0 μM; 72 hours / day 3; frozen-thawed MNC (FIG. 7)
Procedure: SB203580, DMSO and cytokines alone in serum-free expansion media (SFEM) served as the reference compound, vehicle and blank control, respectively. Data represents mean±SEM for n=3.
Annexin-V-FITC (Beckman Coulter, Inc., USA), 7-AAD (Beckman Coulter, Inc., USA) and CD45-PE-Cy7 were used for CD45+ cell viability analysis.
All compounds were assessed for their ability to maintain the viability of CD45+ leukocytes using Annexin V and 7-AAD. Induction of apoptosis in the CD45+ cells during ex vivo cultures limits expansion of HSPC.

[4] = tested on: CD34+ cells; conditions: 5.0 μM; 11 days (FIG. 17H)
[5] = tested on: HSC2 (CD45+CD34+CD38−CD45RA−CD90+CD49f+); assay: Ex vivo expansion of HSC2 from UCB-MNC; conditions: 5.0 μM; SFEM; over 10 days (FIG. 13C)
Excerpt: Mononuclear cells (MNC) were isolated from the fresh UCB by density gradient centrifugation using Ficoll-Histopaque™ Premium (GE Healthcare, UK). Counted UCB-MNC was cryopreserved in 90% v/v autologous plasma with 10% v/v dimethyl-sulfoxide (DMSO) (Sigma Aldrich, USA) for subsequent usage. UCB-MNC was thawed using human serum albumin (25% v/v) (Health Sciences Authority, Singapore) and Dextran 40 (75% v/v) (Hospira, USA). […] For certain experiments, cell cultures were initiated with purified populations such as early (CD45+CD34+CD38−) or late (CD45+CD34+CD38+) progenitor cells at optimal plating concentration of 5.0×10^4 cells/ml or 2.0×10^6 cells/ml, respectively. Such pure populations were obtained by labeling the frozen-thawed, non-enriched UCB-MNC using fluorescence conjugated antibodies followed by fluorescence activated cell sorting (FACS). The substituted azole-based small molecules dissolved in DMSO were added to the cultures at an empirically determined optimal concentration of 5.0 μM. […]
Cell cultures were maintained in a humidified, 5% carbon dioxide incubator at 37° C. for the required duration. […] The extracted cells were counted using an automated differential hematology cell counter (COULTER® AcT™ diff Hematology Analyzer, Beckman Coulter Inc, USA) and re-suspended in DPBS for subsequent in vitro analysis or transplantation in mice. […]

[6] = tested on: UCB-MNC expanded cells; conditions: 5.0 μM; ACF; 11 days (FIG. 13E)
Procedure: UCB-MNC samples were fixed with modified Carnoy's fixative (Leica Biosystems, Germany) and placed onto glass microscope slides, and then dehydrated through an ethanol (Sigma-Aldrich, USA) series (70%, 85% and 100%) for 2 minutes followed by air-drying.
FISH assays were carried out using a panel of probes (Abbott Molecular, USA) comprising LSI D7S486 SpectrumOrange™/CEP 7 SpectrumGreen™, CEP 8 SpectrumAqua™/LSI MYC SpectrumOrange™, LSI CDKN2A SpectrumOrange™/CEP 9 SpectrumGreen™, LSI ABL1 SpectrumOrange™/BCR SpectrumGreen™ dual fusion translocation probe, LSI MLL dual color break-apart probe, LSI ETV6 SpectrumGreen™/RUNX1 SpectrumOrange™ extra signal dual color translocation probe, and LSI TP53 SpectrumOrange™/CEP 17 SpectrumGreen™ probe set. The FISH probes were applied to the fixed cells and co-denatured at 75° C., followed by an overnight hybridization at 37° C. Washes were performed and the slide was counterstained with DAPI anti-fade solution (Vectashield, Vector Laboratories, USA) and analyzed using an epi-fluorescence microscope (Leica, Germany).
Signals from 100 non-overlapping nuclei were enumerated for loss of LSI D7S486, trisomy 8, loss of CDKN2A, translocation involving ABL1 and BCR, MLL break-apart, translocation involving ETV6 and RUNX1, and loss of TP53. […]

[7] = tested on: colony forming unit (CFU) - granulocyte, macrophage (GM); conditions: 5.0 μM; SFEM; 10 days (FIG. 9B)
Procedure: Colony-forming units (CFU) of granulocyte-monocyte (GM) from freshly thawed UCB-MNC or 11 days expanded cells of the mentioned cell cultures were evaluated. Duplicates of freshly thawed UCB-MNC (5,000 and 10,000 cells) and expanded cells (1,000 and 5,000 cells) were cultured in 35 mm petri dishes (BD Falcon, USA) in 1.1 mL of hematopoietic stem cell (HSC)-CFU complete media with erythropoietin (EPO) (Miltenyi Biotec, Germany) without any further media manipulation. After 14-16 days in culture in a humidified environment at 37° C. and 5% CO2, colonies were scored and pictured using a SZ61 Olympus microscope equipped with charge-coupled device (CCD) camera (Olympus Europa GmbH, Germany).

[8] = tested on: CD34 cells; conditions: cited from earlier work
[9] = IM-29 mediated expansion of UCB
[10] = 5.0 μM, SFEM, 10 days (FIG. 8C)

In the case of Cc1cccc(-c2nc(-c3ccc4ccccc4c3F)[nH]c2-c2ccncc2)c1 [IM-04, 4-[2-(1-fluoronaphthalen-2-yl)-4-(m-tolyl)-1H-imidazol-5-yl]pyridine], the “relative effectiveness in inducing ex vivo expansion of HPC/HSPC (in words)” value (“relative effectiveness … of HPC/HSPC (in words)” for short) ([1]; 5.0 μM) was “second most effective compound”.

For Fc1ccc(-c2nc(-c3ccc4ccccc4c3F)[nH]c2-c2ccncc2)cc1 [IM-29, 4-[2-(1-fluoronaphthalen-2-yl)-4(5)-(4-fluorophenyl)-1H-imidazol-5(4)-yl]pyridine], the “expansion of TNC reduced, compared to 5.0 μM” value ([2]; 1.0 μM IM-29, ACF) was 0.83 fold, the “increase of total nucleated cells (TNC) compared to starting cell number” value ([2]; 5.0 μM, ACF, by day 11 (FIG. 11)) was “about 6 fold” and the “expansion of TNC reduced, compared to 5.0 μM” value ([2]; 10 μM IM-29, ACF) was 0.70 fold. The “increase of total nucleated cells (summary)” value [2, 9] was “at least 5 fold”, the “acute toxicity to UCB cells (CD45+ viability)” value [3] was “minimal toxicity” and the “CD34+ cell expansion, fold higher compared to cytokine control cultures” value [4] was “approximately 1.9 fold”. For the same compound, the “HSC2 expansion enhancement compared to cytokine-only control” value [5] was “at least 7.5 fold”, the “FISH results with probes relating to hematological malignancies” value [6] was “normal results” and the “expansion of colony forming units (CFU) compared to non-cultured cells” value [7] was “at least 100 fold”. The “enhancement of HPC expansion compared to cytokine control” value ([1]; 1.0 μM, ACF) was 2.7 fold, the “enhancement effect for HPC expansion compared to cytokine control” value ([1]; 5.0 μM, 10 days (FIG. 8A)) was 8 fold and the “boost of HPC expansion on increasing culturing period from 7 days to 9 days” value ([1]; 5.0 μM, ACF (FIG. 11)) was “at least 5 fold”. For the same compound, the “expansion of HPC, IM-29 added at both day 0 and day 7 (Group 1)” value ([1]; 5.0 μM, ACF, 10 days (FIG. 12)) was ≥ 450 fold, the “enhancement of HPC expansion compared to cytokine control” value ([1]; 5.0 μM, ACF) was 3.6 fold and the “HPC-associated expression of CD45+CD34+CD38−CD45RA−” value [1, 10] was “about 68%”. For the same compound, the “HPC-associated expression, fold higher than cytokine control” value [1, 10] was 3 fold, the “expansion of HPC, IM-29 added at both day 0 and day 7 (Group 1)” value ([1]; 5.0 μM, SFEM, 10 days (FIG. 12)) was “at least 750 fold” and the “enhancement of HPC expansion compared to cytokine control” value ([1]; 10.0 μM, ACF) was 2.4 fold. The “HPC expansion reduced compared to Group 1 when IM-29 not replenished on day 7 (Group 2)” value ([1]; IM-29 at day 0 only, 10 days (FIG. 12)) was “at least 0.7 fold”, the “expansion of HPC (summary)” value [1, 9] was “at least 1,000 fold” and the “HPC expansion with IM-29 and a single cytokine” value ([1]; S+IM, T+IM, F+IM or IG+IM (data not shown)) was “minimal expansion”. The “HPC expansion, fold higher than the four cytokines culture” value ([1]; S+T+F+IG+IM-29 vs four cytokines, ACF, 11 days (FIG. 1)) was “at least 4.7 fold”, the HPC expansion ([1]; S+T+F+IM-29 5.0 μM, ACF, 11 days (FIG. 1)) was 1265.2±39.1 fold and the “HPC expansion enhancement effect vs S+T+F” value ([1]; S+T+F+IM-29 vs S+T+F, ACF, 11 days (FIG. 1)) was 2.6 fold. For the same compound, the HPC expansion ([1]; SCF+TPO+FLT-3L+IGFBP-2+IM-29 5.0 μM, ACF, 11 days (FIG. 1)) was 1513.9±6.4 fold, the “relative effectiveness … of HPC/HSPC (in words)” value ([1]; 5.0 μM) was “most effective of those tested; also recorded: most effective compound” and the “augmentation of HPC expansion when IM-29 is added to basal cocktail” value ([1]; basal cocktail S+IG+T, ACF, 11 days (FIG. 1)) was “two-fold”. For the same compound, the “HPC expansion of Group 1, fold higher than cytokine control Group 3” value ([1]; irrespective of basal culture media, 10 days (FIG. 12)) was “at least 12 fold”, the “effect on expanding HSPC, IM-29 added only at day 7 (Group 4)” value ([1]; not added at start of culture, 10 days (FIG. 12)) was “negligible effect” and the “HPC expansion with IM-29 alone” value ([1]; without any cytokines (data not shown)) was “did not support the expansion of HPC”.

For NC(=O)c1cccnc1 [NAM, nicotinamide], the “increase of CD34 cells” value ([8]; over 21 days, Horwitz et al. 2014) is given as 72 fold.

With Cc1cccc(-c2oc(-c3ccc4ccccc4c3F)nc2-c2ccncc2)c1 [OZ-07, 2-(1-fluoronaphthalen-2-yl)-4-(pyridin-4-yl)-5-(m-tolyl)oxazole] the “relative effectiveness … of HPC/HSPC (in words)” value ([1]; 5.0 μM) was “not optimally active”.

For CC(C)n1cnc2c(NCCc3ccc(O)cc3)nc(-c3csc4ccccc34)nc21 [SR-1, stemregenin-1], the “median CD34 expansion” value ([8]; cultures lasting up to 15 days, Wagner et al. 2016) is given as 330 fold.

For Fc1ccc(-c2nc(-c3ccc4ccccc4c3)[nH]c2-c2ccncc2)cc1 [ZQX-33, 4-[2-(naphthalen-2-yl)-4(5)-(4-fluorophenyl)-1H-imidazol-5(4)-yl]pyridine], the “HPC expansion capacity reduced relative to IM-29” value ([1]; naphthalen-2-yl instead of 1-fluoronaphthalen-2-yl at C2, P<0.001) was “at least 2 fold”.

From patent publication US20190359941A1, “SUBSTITUTED AZOLE DERIVATIVES FOR GENERATION, PROLIFERATION AND DIFFERENTIATION OF HEMATOPOIETIC STEM AND PROGENITOR CELLS” (NATIONAL UNIVERSITY OF SINGAPORE, priority 2016, published 2019)
